Data from article PMC4823711, “Allosteric Partial Inhibition of Monomeric Proteases. Sulfated Coumarins Induce Regulation, not just Inhibition, of Thrombin” (Scientific Reports, 2016).
Where “and” joins values, the source holds several entries; their conditions need not be identical. Equal entries are not always repeated.

Columns and labels:
Format in all cases: biochemical
thrombin mutant R233A = molecular target: T1, thrombin mutant R233A (Homo sapiens, UniProt P00734, R608A); experiment: Inhibition of thrombin mutant R233A; details: pH 7.4, 25 °C
T1 construct: a group of thrombin mutants containing replacement of either Arg or Lys present in exosite 2 to Ala
Method: (§1) Chromogenic substrate hydrolysis assay was used to measure potency of inhibition, as previously reported. The assay was performed using Flexstation III (Molecular Devices, Sunnyvale, CA) by monitoring substrate hydrolysis at 405 nm. For thrombin and its mutants, 180 μL of buffer (20 mM Tris-HCl, 100 mM NaCl, 2.5 mM CaCl2, 0.1% (polyethylene glycol) PEG 8000, pH 7.4) was added to each well followed by 5 μL of 240 nM thrombin and 10 μL of sulfated coumarin in DMSO to give 0.002 to 250 μM final concentration (or 10 μL of DMSO alone). After incubation for 10 min at 25 °C, 5 μL of 2 mM Spectrozyme TH was added to each well simultaneously and allowed to react for 60 seconds at 25 °C while simultaneously monitoring the reaction to obtain the rate of increase in A405. Identical experimental conditions were used for reactions in the presence of antithrombin, except for 100 nM of antithrombin added prior to the addition of the substrate.

factor XIa = molecular target: T2, factor XIa (Homo sapiens, UniProt P03951); experiment: Chromogenic substrate hydrolysis assay, factor XIa inhibition (S-2366)
T2 construct: antithrombin, factor Xa and factor XIa were from Haematologic Technologies; purchased Haematologic Technologies (Essex Junction, VT); host or cells: human plasma
Method: (§2) For factor XIa inhibition studies, 85 μL of buffer (50 mM Tris-HCl, 150 mM NaCl, 0.1% PEG 8000, 0.02% Tween 80, pH 7.4) was added to each well, followed by 7 μL of 15.3 nM enzyme and 3 μL of sulfated coumarin (3.75–500 μM final concentration) and incubated for 10 min at 37 °C. After the incubation period, 5 μL of 6.9 mM S-2366 was added to each well simultaneously and allowed to react for 300 sec at 37 °C. For factor Xa assay, 180 μL of buffer (20 mM Tris-HCl, 100 mM NaCl, 2.5 mM CaCl2, 0.1% PEG 8000, 0.02% Tween 80, pH 7.4) was added to each well followed by 5 μL of 43.5 nM enzyme, 10 μL of sulfated coumarin (0.002–250 μM final concentration). After a 10 min incubation, 5 μL of 5 mM Spectrozyme FXa was added to each well simultaneously and allowed to react for 300 seconds at 37 °C. The slopes generated from each experiment were used to calculate the fractional residual activity (Y) at each concentration of the inhibitor, and analyzed using logistic equation 1, in which YM is the maximum efficacy, Y0 is minimum efficacy and HS is the Hill slope.

factor Xa = molecular target: T3, factor Xa (Homo sapiens, UniProt P00742); experiment: Antithrombin inactivation of factor Xa in the presence of sulfated coumarin; details: 0 or 220 nM 3g, pH 7.2, 25 °C
T3 construct: antithrombin, factor Xa and factor XIa were from Haematologic Technologies; purchased Haematologic Technologies (Essex Junction, VT); host or cells: human plasma
Method: The effect of 3g on the reaction of thrombin (or factor Xa) with antithrombin was studied under pseudo-first order conditions such that [AT]0 ≫ [T]0. A fixed concentration of 6 nM plasma α-thrombin in 20 mM Tris-HCl buffer, pH 7.2, containing 100 mM NaCl, 2.5 mM CaCl2 and 0.1% PEG 8000 at 25 °C was incubated for 128 min with final concentrations of 0, 75, 225, or 675 nM of 3g following which a fixed concentration of 100 nM of antithrombin was added and the reaction allowed to proceed. […] The initial rate of hydrolysis of the Spectrozymes were monitored from the linear increase in A405. The fractional residual enzyme activity at each time point was calculated from the slope, i.e., thrombin activity, measured at the start of the experiment and fitted by the standard exponential decay equation 6 to calculate the observed pseudo-first order rate constant, kOBS, at each concentration of 3g. The intrinsic second-order rate constant of antithrombin inhibition of thrombin (kINT) was calculated using equation 7 and plotted against the concentration of thrombin–3g complex, obtained from quadratic equation 8, to derive the kINT of antithrombin inhibition of thrombin–3g complex.

thrombin [1] = molecular target: T4, thrombin (Homo sapiens, UniProt P00734); experiment: Michaelis-Menten kinetics of Spectrozyme TH hydrolysis by thrombin; design: 6 nM plasma α-thrombin; purchased Haematologic Technologies (Essex Junction, VT); details: for VMAX: pH 7.4, 25 °C
Method: Four concentrations (0, 25, 187, and 2500 nM) of 3g were studied in triplicate where 3g was incubated with thrombin for 10 min in buffer (20 mM Tris-HCl, 100 mM NaCl, 2.5 mM CaCl2, 0.1% PEG 8000, pH 7.4) at 25 °C. Spectrozyme TH at various concentrations (0–250 μM) was added at each of the four 3g concentrations and the initial rate of hydrolysis was recorded from the increase in A405 as a function of time. This slope was fitted to the standard Michaelis-Menten equation to derive VMAX and KM of the reaction at each of the 3g concentrations.

[2] = molecular target: T5, wtTH (recombinant wild type thrombin) (Homo sapiens, UniProt P00734); experiment: Inhibition of recombinant wild type thrombin; details: pH 7.4, 25 °C
T5 construct: the recombinant wild-type thrombin control
Method: as §1

thrombin [3] = molecular target: T4, thrombin; experiment: Chromogenic substrate hydrolysis assay, thrombin inhibition (Spectrozyme TH); design: 6 nM plasma α-thrombin; purchased Haematologic Technologies (Essex Junction, VT); details: pH 7.4, 25 °C
Method: as §1, §2

T2 sequence (P03951 388-625 limits assumed): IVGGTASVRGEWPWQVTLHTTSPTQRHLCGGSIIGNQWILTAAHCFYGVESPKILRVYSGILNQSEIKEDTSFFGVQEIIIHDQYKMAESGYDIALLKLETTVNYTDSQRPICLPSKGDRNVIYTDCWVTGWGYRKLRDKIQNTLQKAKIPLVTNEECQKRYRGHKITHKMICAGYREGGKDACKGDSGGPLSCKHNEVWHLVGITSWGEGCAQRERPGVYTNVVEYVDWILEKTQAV
T2 sequence (P03951 19-387 limits assumed): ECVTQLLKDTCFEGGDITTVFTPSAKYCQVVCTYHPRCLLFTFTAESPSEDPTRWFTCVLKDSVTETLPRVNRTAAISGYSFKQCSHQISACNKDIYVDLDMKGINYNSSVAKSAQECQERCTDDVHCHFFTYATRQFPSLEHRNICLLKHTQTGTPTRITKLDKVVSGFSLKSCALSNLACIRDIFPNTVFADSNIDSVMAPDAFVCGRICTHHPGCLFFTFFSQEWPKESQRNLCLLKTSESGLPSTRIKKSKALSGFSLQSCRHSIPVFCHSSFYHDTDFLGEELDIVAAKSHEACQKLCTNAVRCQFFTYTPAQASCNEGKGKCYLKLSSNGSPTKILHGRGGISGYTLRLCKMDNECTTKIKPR
T3 sequence (P00742 235-488 limits assumed): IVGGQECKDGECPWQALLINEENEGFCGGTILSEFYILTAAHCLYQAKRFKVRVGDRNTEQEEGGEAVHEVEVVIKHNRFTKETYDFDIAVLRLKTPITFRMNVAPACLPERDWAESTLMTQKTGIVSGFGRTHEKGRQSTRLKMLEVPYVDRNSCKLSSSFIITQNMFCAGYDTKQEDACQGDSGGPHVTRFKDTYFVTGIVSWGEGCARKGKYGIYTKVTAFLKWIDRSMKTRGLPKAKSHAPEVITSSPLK
T3 sequence (P00742 41-179 limits assumed): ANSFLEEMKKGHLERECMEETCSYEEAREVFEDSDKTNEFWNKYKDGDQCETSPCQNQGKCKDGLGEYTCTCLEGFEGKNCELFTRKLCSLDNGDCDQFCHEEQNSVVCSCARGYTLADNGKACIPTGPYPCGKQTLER

HS (thrombin mutant R233A): 2.0 | IC50 (thrombin mutant R233A): 359 ± 70 nM | ΔY (thrombin mutant R233A): 33 ± 4% | selectivity for thrombin in comparison to factor XIa (factor XIa): ~ 150 fold | IC50 (factor XIa; pH 7.4, 37 °C, read-out: IC50 against factor XIa): > 30000 nM | change in the second-order rate constant of antithrombin inhibition of factor Xa (factor Xa): did not induce any change | VMAX (thrombin [1]; [3g] 25 nM): 52.4 ± 1.5 mAU/min | VMAX (thrombin [1]; [3g] 187 nM): 45.3 ± 1.1 mAU/min | VMAX (thrombin [1]; [3g] 2500 nM): 31.0 ± 0.9 mAU/min and 31.0 mAU/min | reduction of VMAX (thrombin [1]; at saturating levels of 3g): ≤ 50% | HS [2]: 4.0 | IC50 [2]: 413 ± 50 nM | ΔY [2]: 39 ± 3% | Hill slope (HS) of thrombin inhibition (thrombin [3]): 1.2 | efficacy of thrombin inhibition (ΔY) (thrombin [3]; at saturation): 47% and 50% | IC50 (thrombin [3]; read-out: IC50 against thrombin): 180 nM
SMILES: O=c1oc2cc(OCCCCn3cc(COc4ccc(-c5c(-c6ccccc6)c6cc(Cl)cc(Cl)c6oc5=O)cc4)nn3)ccc2c(-c2ccccc2)c1-c1ccc(OS(=O)(=O)O)cc1 [3g]
